Data published in PMC7161706 (Acta Pharmaceutica Sinica. B, 2019).

How the values were obtained:
[1] = biological target: T1, GuC4H1 (Glycyrrhiza uralensis, UniProt A0A6B7HXZ5); assay: yeast feeding, product by HPLC-Q-TOF-MS; assay type: cell-based; details: 20 μmol/L fed, 30 °C, 12 h; ATR1 reductase in WAT11
T1 sequence (A0A6B7HXZ5 1-505): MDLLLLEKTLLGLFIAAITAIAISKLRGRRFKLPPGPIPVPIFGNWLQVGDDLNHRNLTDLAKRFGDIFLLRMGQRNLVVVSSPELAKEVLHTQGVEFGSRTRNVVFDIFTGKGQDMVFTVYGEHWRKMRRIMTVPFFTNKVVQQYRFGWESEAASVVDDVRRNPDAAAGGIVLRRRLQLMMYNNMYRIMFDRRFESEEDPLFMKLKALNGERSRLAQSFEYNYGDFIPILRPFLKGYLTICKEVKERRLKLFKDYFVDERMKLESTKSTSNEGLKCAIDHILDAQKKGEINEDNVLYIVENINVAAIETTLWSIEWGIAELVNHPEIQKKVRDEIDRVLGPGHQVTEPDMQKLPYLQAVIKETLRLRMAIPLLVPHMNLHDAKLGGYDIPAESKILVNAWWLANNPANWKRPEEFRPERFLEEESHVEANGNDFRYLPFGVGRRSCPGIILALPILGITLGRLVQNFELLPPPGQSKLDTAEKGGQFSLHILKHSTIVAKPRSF

[2] = biological target: GuPAL1 (Glycyrrhiza uralensis, UniProt A0A6B7HYR5); assay: product by HPLC-Q-TOF-MS; assay type: biochemical; details: 1 mmol/L substrate, pH 8.0, 30 °C, 10 h
GuPAL1, sequence (A0A6B7HYR5 1-783 limits assumed): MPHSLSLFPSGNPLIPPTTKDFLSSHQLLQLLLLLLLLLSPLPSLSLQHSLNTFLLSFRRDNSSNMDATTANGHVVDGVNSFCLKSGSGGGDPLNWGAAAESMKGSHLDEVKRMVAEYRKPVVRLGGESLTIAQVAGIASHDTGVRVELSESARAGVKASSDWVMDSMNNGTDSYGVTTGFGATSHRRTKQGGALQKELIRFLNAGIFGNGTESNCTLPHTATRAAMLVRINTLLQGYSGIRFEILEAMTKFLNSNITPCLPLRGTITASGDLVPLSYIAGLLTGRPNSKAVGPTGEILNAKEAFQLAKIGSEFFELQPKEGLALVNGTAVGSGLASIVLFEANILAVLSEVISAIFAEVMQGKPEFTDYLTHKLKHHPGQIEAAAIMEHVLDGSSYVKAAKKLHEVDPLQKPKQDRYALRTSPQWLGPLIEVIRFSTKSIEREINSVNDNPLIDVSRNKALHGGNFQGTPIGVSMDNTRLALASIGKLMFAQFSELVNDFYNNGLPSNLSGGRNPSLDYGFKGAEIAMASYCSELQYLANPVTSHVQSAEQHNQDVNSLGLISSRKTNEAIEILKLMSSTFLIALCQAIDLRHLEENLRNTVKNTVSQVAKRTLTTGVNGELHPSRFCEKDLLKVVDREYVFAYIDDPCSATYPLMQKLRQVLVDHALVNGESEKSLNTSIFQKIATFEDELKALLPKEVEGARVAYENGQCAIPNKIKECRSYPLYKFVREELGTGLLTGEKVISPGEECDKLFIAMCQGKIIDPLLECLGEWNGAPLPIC

SMILES	yeast feeding, product by HPLC-Q-TOF-MS (p-coumaric acid) [1]	product by HPLC-Q-TOF-MS (cinnamic acid) [2]
O=C(O)/C=C/c1ccccc1 [CiA, cinnamic acid]	GuC4H1 was able to produce p-coumaric acid upon feeding cinnamic acid and galactose	–
N[C@@H](Cc1ccccc1)C(=O)O [Phe, phenylalanine]	–	incubation of the staring substrate phenylalanine with GuPAL1 yielded cinnamic acid
